{"source": "ChEMBL document CHEMBL1148172", "about": "“A New Diterpene from a Soft Coral, Sinularia dissecta” (J Nat Prod, 1993)", "biological_target": "T1, Acetylcholinesterase (Rattus norvegicus, UniProt P37136)", "T1 sequence (P37136 whole entry)": "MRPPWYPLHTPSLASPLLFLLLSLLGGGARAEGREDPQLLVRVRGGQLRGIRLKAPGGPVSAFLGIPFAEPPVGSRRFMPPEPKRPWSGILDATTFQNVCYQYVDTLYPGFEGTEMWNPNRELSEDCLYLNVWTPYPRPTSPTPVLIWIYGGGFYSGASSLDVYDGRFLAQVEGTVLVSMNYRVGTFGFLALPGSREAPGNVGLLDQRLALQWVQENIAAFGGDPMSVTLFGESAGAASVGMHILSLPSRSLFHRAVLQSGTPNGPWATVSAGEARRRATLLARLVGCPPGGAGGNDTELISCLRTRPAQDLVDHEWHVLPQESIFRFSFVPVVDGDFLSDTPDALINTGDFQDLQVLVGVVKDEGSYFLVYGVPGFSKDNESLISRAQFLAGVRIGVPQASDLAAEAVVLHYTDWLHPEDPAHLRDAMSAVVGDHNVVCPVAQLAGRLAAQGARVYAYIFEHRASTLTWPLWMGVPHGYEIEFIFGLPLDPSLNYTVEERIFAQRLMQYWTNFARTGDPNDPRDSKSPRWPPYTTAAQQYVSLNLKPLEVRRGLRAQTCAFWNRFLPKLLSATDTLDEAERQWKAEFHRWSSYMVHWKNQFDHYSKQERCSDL", "assay": "Inhibition of Wistar rat brain AChE", "details": "read-out: I50", "data": [{"smiles": "C=C(C)[C@H]1C/C=C(/C(=O)OC)C(O)C(=O)C[C@@](C)(O)CC2=CC(C(=O)OC)=C(C1)O2", "note": "(stereo partly specified)", "values": [{"measurement": "IC50", "value": 63, "unit": "µM"}]}]}
